SMILES strings stand for the structures. Active and inactive are the calls of the source.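 Rule for the calls: active = clearly stronger inhibition of phosphomevalonate kinase than of the coupling enzymes alone in a parallel counterscreen; inactive = the rest.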

This assay deals with phosphomevalonate kinase (Streptococcus pneumoniae D39). Nature of the assay: phosphomevalonate kinase inhibition IC50 – biochemical, mevalonate pathway, coupling enzyme counter-screen, dose response (AID 549). To be noted: PMK enzyme, PK/LDH coupled NADH absorbance 340 nm. For orientation: A counterscreen serves to expose hits that act by an unwanted route or on another target.
Turning to `COc1ccc(C2C3=C(OC(C)=O)c4ccccc4C3=Nc3c2c(=O)n(C)c(=O)n3C)cc1` (configuration not stated), the outcome was inactive. The entry for `CCOc1ccc(CNC(=O)C2CCN(S(=O)(=O)N3CCCC3)CC2)cc1OC` is “inactive”. With `CCn1c(SCC(=O)Nc2ccc(Cl)cc2)nnc1C1CC1`, the result was inactive. With `Cc1ccc(C)c(N(CC(=O)NC2CCCC2)C(=O)CCCC(=O)Nc2ccccn2)c1`, the result was inactive.

For `N#Cc1c(N)sc(=S)c2c1CCN(Cc1ccccc1)C2`, the result was inactive. As for `CC(Sc1ncc(C#N)c(N)n1)C(=O)Nc1ccccc1` (configuration not stated), the outcome was inactive. For the compound `COC(=O)C(NC(=O)c1ccccc1)=C1C=C(C)OC(C)=C1`, the outcome was inactive.

With `COc1ccc(OCC(=O)N2CCN(c3nnc(-c4ccccc4)c4ccccc34)CC2)cc1`, the result was inactive. Regarding `COCCCNC(=O)CN(C1CCCCC1)S(=O)(=O)c1ccc(C)cc1`, the result was inactive. For `COc1ccc(N2C(C)=CS/C2=C(/C#N)c2nnc(N3CCOCC3)n2-c2ccccc2)cc1`, the outcome was inactive. With `O=C(Cc1cn2ccsc2n1)OCc1nc2ccccc2s1`, the outcome was inactive. As to `COc1cc2[nH]c(=O)n(CCC(=O)NC3CCN(Cc4ccccc4)CC3)c(=O)c2cc1OC`, the outcome was inactive. With `Cc1cccc(OCCCc2c(C)n[nH]c2C)c1`, the result was inactive.

Take `COc1ccc2c(c1)c(C(=O)CNc1nc(C)cs1)c(C)n2C`: the outcome was inactive. In the case of `CCOc1ccc(C2c3c(oc4cc(C)c(C)cc4c3=O)C(=O)N2CCCN(C)C)cc1OC` (configuration not stated), the result was inactive. Take `COc1ccc(C(=O)Nc2cccc3c2C(=O)NC3=O)cc1S(=O)(=O)N1CCOCC1`: the outcome was inactive. Regarding `COc1ccccc1-n1c(SCC(=O)N2CCCCC2)nnc1-c1ccccc1O`, the outcome was inactive. As for `Cc1ccc(C(=O)c2cc3c(cc2N)OCCO3)cc1`, the outcome was inactive. On to `COc1ccc(CN2C(=O)c3ccccc3C2C(=O)NC2CCCC2)c(OC)c1` (configuration not stated), for which the result was inactive. As for `CN1CCN(S(=O)(=O)c2cccc(S(=O)(=O)c3ccc(Cl)c(Cl)c3)c2)CC1`, the result was inactive. In the case of `COc1cc(OC)nc(NC(=O)NS(=O)(=O)c2ccc(OC(F)(F)F)cc2)n1`, the outcome was inactive.

As for `O=C(c1cc2nc(-c3ccco3)cc(C(F)(F)F)n2n1)N1CCc2ccccc2C1`, the outcome was inactive. As to `CCOCCCNC(=O)C1CCN(S(=O)(=O)N2CC(C)CC(C)C2)CC1` (configuration not stated), the result was inactive. With `CC1(C)CC(=O)c2cc(OCC(=O)N3CCN(c4ccccc4F)CC3)ccc2O1`, the outcome was inactive. For the compound `Cc1csc(C(C#N)C(=O)c2ccc(S(=O)(=O)N3CCCC3)cc2)n1` (configuration not stated), the outcome was inactive. `CCOC(=O)c1ccccc1NCN1C(=O)CSC1=O`: the outcome was inactive.

With `COc1ccc(NC2CC(=O)NC2=O)cc1` (configuration not stated), the outcome was inactive. The result for `CCOC(=O)c1cnc(SCC(=O)N2CCN(C(=O)c3ccco3)CC2)nc1N` reads “inactive”; that for `CCC(=O)N(Cc1ccco1)c1nc(-c2ccccc2)cs1`, “inactive”. The result for `Cc1ccc(-c2nnn(CC(=O)N(CC(=O)NCC3CCCO3)c3ccc(F)c(Cl)c3)n2)o1` (configuration not stated) reads “inactive”. `Cn1cnnc1SCC(=O)n1c2ccccc2c2ccccc21`: the outcome was inactive.

Turning to `CNC(=O)Cn1ncc2c(C)n(Cc3ccc(C)cc3)c(C)c2c1=O`, the result was inactive. Consider `CC(C)(C)NC(=O)CSc1nnc(-c2ccccn2)n1-c1ccccc1`, for which the result was inactive. As to `COc1ccc(-c2cc3nc(C)c(CCC(=O)N4CCCCC4)c(C)n3n2)c(OC)c1`, the result was inactive.

Regarding `N=c1n(CCN2CCOCC2)c2ccccc2n1CC(=O)c1ccc(Cl)c(Cl)c1`, the outcome was inactive. In the case of `COC(=O)CNc1nc(-c2ccccc2F)nc2ccccc12`, the result was inactive. Regarding `Cc1cc(C)n2nc(SCC(=O)NCc3ccco3)nc2n1`, the outcome was inactive.

As to `OC1CCCN(Cc2ccc3c(c2)Cc2ccccc2-3)C1` (configuration not stated), the result was inactive.

On to `O=C(NC1CC1)c1ccc2c(c1)ncn2C1CCCC1`, for which the result was inactive. The result for `CC(=O)c1ccc(N2CCN(c3ccc(C(F)(F)F)cn3)CC2)cc1` reads “inactive”; that for `Cc1nnc(SCc2ccccc2)n1N`, “inactive”. With `CC(=O)N1CCc2cc(S(=O)(=O)NC3CCCc4ccccc43)ccc21` (configuration not stated), the result was inactive. On to `COCC(=O)N(C)c1nnc(-c2cnc(C)cn2)s1`, for which the outcome was inactive. `CC(C)(C)NC(=O)CSc1ncnc2c1nnn2Cc1ccccc1Cl`: the outcome was inactive. For the compound `Cc1nn(Cc2ccccc2)c2c1C(c1ccncc1)C(C#N)=C(N)O2` (configuration not stated), the result was inactive.

`COc1ccc(C(c2nnnn2CC2CCCO2)N2CCN(c3ccccc3)CC2)cc1` (configuration not stated): the result was inactive. For `Cc1cc(C)cc(CC2CC(=O)N(c3nc(C)cc(C)n3)C2=O)c1` (configuration not stated), the outcome was inactive. As for `Cc1nnc(SCC(=O)Nc2ncc(Cc3ccc(F)cc3)s2)n1N`, the outcome was inactive. Take `Cc1ccsc1C1C(C(=O)O)c2ccccc2C(=O)N1C` (configuration not stated): the result was inactive. The result for `COc1ccccc1CNC(=O)C1CCN(S(=O)(=O)N2CC(C)CC(C)C2)CC1` (configuration not stated) reads “inactive”; that for `COc1ccc(S(=O)(=O)Nc2nnc(C)s2)cc1`, “inactive”. The result for `CC(C)COC(=O)NCC12C=CC(O1)C1C(=O)N(c3ccc(Cl)cc3)C(=O)C12` (configuration not stated) reads “inactive”.

With `CCn1c(SCC(=O)c2[nH]c(C)c(C(C)=O)c2C)nnc1-c1cccs1`, the outcome was inactive.

For `COc1ccc2c(c1)OC1(C)CC2C(C(=O)c2ccccc2OC)C(=O)N1` (configuration not stated), the result was inactive.

For `Cn1c(=O)c2c(-c3ccccc3)n(C3CCCCC3)cc2n(C)c1=O`, the outcome was inactive. Regarding `COc1ccc(OC)c(NC(=O)CNC(=O)Cn2ccc3ccccc3c2=O)c1`, the outcome was inactive.

`O=C(C1CCN(Cc2ccc(OCc3ccccc3)cc2)CC1)N1CCCC1`: the outcome was inactive.

Take `Cc1nc(SC2C=CS(=O)(=O)C2)n[nH]1` (configuration not stated): the result was inactive. For the compound `COc1ccccc1C(c1nnnn1C(C)(C)C)N1CCN(Cc2ccncc2)CC1` (configuration not stated), the result was inactive. As to `O=C(CSc1cc(Cl)ccc1Cl)NCC1CCCO1` (configuration not stated), the result was inactive.

Regarding `COc1cccc(OC)c1OCC(O)CN1CCN(c2ccccc2)CC1` (configuration not stated), the outcome was inactive. The result for `O=C(COC(=O)c1ccco1)NC1CCCCC1` reads “inactive”; that for `CC(CC(=O)O)NCC1COc2ccccc2O1` (configuration not stated), “inactive”; that for `COc1ccc(C(=O)Nc2ccncc2)cc1OC`, “inactive”. Take `CN(C(=O)c1cnccn1)c1nnc(-c2cccnc2)s1`: the outcome was inactive. `COc1cc2nc(C3CCC3)n(NC(=O)C3CCCC(OC)C3)c(=O)c2cc1OC` (configuration not stated): the result was inactive. As to `Cc1cccc2cc(CN(CCN3CCCC3)C(=O)NC3CCCCC3)c(=O)[nH]c12`, the outcome was inactive.

(Values after PubChem BioAssay AID549 (SRMLSC, 2006).)
